The source of these data is publication PMC6576746, “Rational discovery of dual-indication multi-target PDE/Kinase inhibitor for precision anti-cancer therapy using structural systems pharmacology” (PLoS Computational Biology, 2019).

In assay [1] the target is T1, FLT3 (Homo sapiens, UniProt P36888).
T1 construct: DiscoverX KinomeScan panel kinase
Put plainly: KinomeScan competition binding assay. Particulars: 10 μM levosimendan.

For assay [2], the target named is T2, MAP2K5 (Homo sapiens, UniProt Q13163).
T2 construct: DiscoverX KinomeScan panel kinase
Put plainly: KinomeScan competition binding assay. Particulars: 10 μM levosimendan.

In assay [3] the target is T3, ABL1(Y253F)-phosphorylated (Homo sapiens, UniProt P00519, Y253F).
T3 construct: phosphorylated
Put plainly: biochemical. Details: DiscoverX KinomeScan competition binding assay across human kinases; per cent of control at 10 and 100 uM. Particulars: competition binding, % of control; read-out: Percent Control (100 uM Levosimendan). As to the method:
(§1) To validate our computational predictions, we employed a competition binding assay to detect the binding of levosimendan to 425 human kinases as well as its dose-response curve to RIOK1. The proprietary KinomeScan assay was performed by DiscoverX (Fremont, California, USA). The tests were performed at 10 μM and 100 μM concentrations of levosimendan, respectively. Assay results were reported as %control, calculated as follows: %control=(TestCompoundSignal−PositiveControlSignal)/(NegativeControlSignal−PositiveControlSignal)×100 KinomeScan assay across 452 human kinases verified our computational prediction (S1 Table). RIOK1 is one of the strongest inhibited kinases by levosimendan. The percentage control of RIOK1 is 15.0 and 0.0 under the treatment of 10 μM and 100 μM of levosimendan, respectively. […] The percentage controls of five kinases: FLT3, MAP2K5, PIP5K1A, GAK, and KIT are less than 30.0 under the treatment of both 10 μM and 100 μM of levosimendan. Both FLT3 and KIT are tyrosine protein kinases. Their inhibitors have recently been approved for the treatment of Acute Myeloid Leukemia and other types of cancers, but a combination therapy is needed to overcome rapidly emerged drug resistance, thus improve patients’ drug responses. Other kinases inhibited by levosimendan belong to serine/threonine protein kinase family (RIOK1, RIOK3, GAK, and MAP2K5) and lipid kinase family (PIP5K1A). […] As a result, levosimendan may modulate different cancer pathways from those by the tyrosine protein kinase inhibitors, and it could be a novel lead compound for a new anti-cancer therapy to overcome drug resistance of existing drugs or to target different types of cancers through polypharmacology or drug combination.

Assay [4] deals with T4, ABL1-nonphosphorylated (Homo sapiens, UniProt P00519).
T4 construct: nonphosphorylated
In words: biochemical. On the set-up: DiscoverX KinomeScan competition binding assay across human kinases; per cent of control at 10 and 100 uM. The settings on record: competition binding, % of control. How it is done: as §1

In assay [5] the target is T5, ARK5 (Homo sapiens, UniProt O60285).
T5 construct: gene NUAK1
In words: biochemical. On the set-up: DiscoverX KinomeScan competition binding assay across human kinases; per cent of control at 10 and 100 uM. Particulars: competition binding, % of control; read-out: Percent Control (100 uM Levosimendan). As to the method: as §1

The target in assay [6] is BRSK2 (Homo sapiens, UniProt Q8IWQ3). In words: biochemical. Particulars: competition binding, % of control; read-out: Percent Control (100 uM Levosimendan). Details: DiscoverX KinomeScan competition binding assay across human kinases; per cent of control at 10 and 100 uM. As to the method: as §1
Assay [7] has as its target T6, CDC2L1 (Homo sapiens, UniProt P21127).
T6 construct: gene CDK11B
Put plainly: biochemical. Details: DiscoverX KinomeScan competition binding assay across human kinases; per cent of control at 10 and 100 uM. Particulars: competition binding, % of control; read-out: Percent Control (100 uM Levosimendan). How it is done: as §1

Assay [8] concerns the target IRAK1 (Homo sapiens, UniProt P51617). In words: biochemical. The settings on record: competition binding, % of control; read-out: Percent Control (100 uM Levosimendan). Details: DiscoverX KinomeScan competition binding assay across human kinases; per cent of control at 10 and 100 uM. As to the method: as §1
In assay [9] the target is ITK (Homo sapiens, UniProt Q08881). In words: biochemical. Particulars: competition binding, % of control; read-out: Percent Control (100 uM Levosimendan). On the set-up: DiscoverX KinomeScan competition binding assay across human kinases; per cent of control at 10 and 100 uM. How it is done:
as §1

Assay [10] deals with KIT-autoinhibited (Homo sapiens, UniProt P10721). Put plainly: biochemical. On the set-up: DiscoverX KinomeScan competition binding assay across human kinases; per cent of control at 10 and 100 uM. Particulars: competition binding, % of control. How it is done:
as §1

The target of assay [11] is MAP3K2 (Homo sapiens, UniProt Q9Y2U5). In words: biochemical. Particulars: competition binding, % of control; read-out: Percent Control (100 uM Levosimendan). On the set-up: DiscoverX KinomeScan competition binding assay across human kinases; per cent of control at 10 and 100 uM. As to the method: as §1
Assay [12] deals with MAP4K5 (Homo sapiens, UniProt Q9Y4K4). In words: biochemical. Details: DiscoverX KinomeScan competition binding assay across human kinases; per cent of control at 10 and 100 uM. The settings on record: competition binding, % of control; read-out: Percent Control (100 uM Levosimendan). How it is done:
as §1

In assay [13] the target is MAPKAPK2 (Homo sapiens, UniProt P49137). Put plainly: biochemical. Particulars: competition binding, % of control; read-out: Percent Control (100 uM Levosimendan). On the set-up: DiscoverX KinomeScan competition binding assay across human kinases; per cent of control at 10 and 100 uM. As to the method:
as §1

Assay [14] has as its target MAPKAPK5 (Homo sapiens, UniProt Q8IW41). Put plainly: biochemical. Details: DiscoverX KinomeScan competition binding assay across human kinases; per cent of control at 10 and 100 uM. Particulars: competition binding, % of control; read-out: Percent Control (100 uM Levosimendan). How it is done: as §1
The target of assay [15] is MAST1 (Homo sapiens, UniProt Q9Y2H9). In words: biochemical. On the set-up: DiscoverX KinomeScan competition binding assay across human kinases; per cent of control at 10 and 100 uM. Particulars: competition binding, % of control; read-out: Percent Control (100 uM Levosimendan). How it is done:
as §1

Assay [16] has as its target PDPK1 (Homo sapiens, UniProt O15530). Put plainly: biochemical. Details: DiscoverX KinomeScan competition binding assay across human kinases; per cent of control at 10 and 100 uM. Particulars: competition binding, % of control; read-out: Percent Control (100 uM Levosimendan). How it is done: as §1
In assay [17] the target is RIPK4 (Homo sapiens, UniProt P57078). Put plainly: biochemical. Details: DiscoverX KinomeScan competition binding assay across human kinases; per cent of control at 10 and 100 uM. Particulars: competition binding, % of control; read-out: Percent Control (100 uM Levosimendan). As to the method: as §1
For assay [18], the target named is TAOK3 (Homo sapiens, UniProt Q9H2K8). Put plainly: biochemical. On the set-up: DiscoverX KinomeScan competition binding assay across human kinases; per cent of control at 10 and 100 uM. Particulars: competition binding, % of control; read-out: Percent Control (100 uM Levosimendan). As to the method:
as §1

The target of assay [19] is TGFBR2 (Homo sapiens, UniProt P37173). In words: biochemical. On the set-up: DiscoverX KinomeScan competition binding assay across human kinases; per cent of control at 10 and 100 uM. The settings on record: competition binding, % of control; read-out: Percent Control (100 uM Levosimendan). As to the method:
as §1

Assay [20] has as its target T7, YSK1 (Homo sapiens, UniProt O00506).
T7 construct: gene STK25
Put plainly: biochemical. Details: DiscoverX KinomeScan competition binding assay across human kinases; per cent of control at 10 and 100 uM. The settings on record: competition binding, % of control; read-out: Percent Control (100 uM Levosimendan). As to the method: as §1

Where [21] appears, read: read-out: Percent Control (10 uM Levosimendan).
Where [22] appears, read: read-out: Percent Control (100 uM Levosimendan).

KIT-autoinhibited, sequence (P10721 whole entry): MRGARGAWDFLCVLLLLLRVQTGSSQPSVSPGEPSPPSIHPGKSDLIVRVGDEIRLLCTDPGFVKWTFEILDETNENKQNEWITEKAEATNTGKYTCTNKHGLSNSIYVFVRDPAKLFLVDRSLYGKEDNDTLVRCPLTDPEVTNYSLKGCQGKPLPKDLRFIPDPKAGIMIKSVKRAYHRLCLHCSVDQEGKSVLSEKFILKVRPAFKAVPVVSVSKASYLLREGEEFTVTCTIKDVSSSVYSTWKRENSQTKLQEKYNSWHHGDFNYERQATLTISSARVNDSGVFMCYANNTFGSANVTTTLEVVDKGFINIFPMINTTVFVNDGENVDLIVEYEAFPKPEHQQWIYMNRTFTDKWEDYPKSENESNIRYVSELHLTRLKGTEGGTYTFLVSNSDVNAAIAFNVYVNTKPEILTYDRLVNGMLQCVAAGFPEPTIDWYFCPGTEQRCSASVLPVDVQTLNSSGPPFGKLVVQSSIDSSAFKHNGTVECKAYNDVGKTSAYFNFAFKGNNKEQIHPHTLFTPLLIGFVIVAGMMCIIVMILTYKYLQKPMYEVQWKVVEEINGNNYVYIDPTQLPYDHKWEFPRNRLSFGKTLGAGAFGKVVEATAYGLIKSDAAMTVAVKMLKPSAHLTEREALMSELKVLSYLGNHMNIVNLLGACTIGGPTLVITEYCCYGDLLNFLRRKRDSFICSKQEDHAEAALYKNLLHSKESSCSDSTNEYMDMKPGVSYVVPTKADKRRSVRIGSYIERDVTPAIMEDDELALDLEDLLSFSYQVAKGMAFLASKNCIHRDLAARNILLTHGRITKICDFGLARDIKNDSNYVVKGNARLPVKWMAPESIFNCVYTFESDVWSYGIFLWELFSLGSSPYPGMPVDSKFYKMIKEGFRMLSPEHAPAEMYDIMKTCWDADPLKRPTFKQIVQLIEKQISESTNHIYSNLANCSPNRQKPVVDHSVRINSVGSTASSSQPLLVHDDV
TGFBR2, sequence (P37173 whole entry): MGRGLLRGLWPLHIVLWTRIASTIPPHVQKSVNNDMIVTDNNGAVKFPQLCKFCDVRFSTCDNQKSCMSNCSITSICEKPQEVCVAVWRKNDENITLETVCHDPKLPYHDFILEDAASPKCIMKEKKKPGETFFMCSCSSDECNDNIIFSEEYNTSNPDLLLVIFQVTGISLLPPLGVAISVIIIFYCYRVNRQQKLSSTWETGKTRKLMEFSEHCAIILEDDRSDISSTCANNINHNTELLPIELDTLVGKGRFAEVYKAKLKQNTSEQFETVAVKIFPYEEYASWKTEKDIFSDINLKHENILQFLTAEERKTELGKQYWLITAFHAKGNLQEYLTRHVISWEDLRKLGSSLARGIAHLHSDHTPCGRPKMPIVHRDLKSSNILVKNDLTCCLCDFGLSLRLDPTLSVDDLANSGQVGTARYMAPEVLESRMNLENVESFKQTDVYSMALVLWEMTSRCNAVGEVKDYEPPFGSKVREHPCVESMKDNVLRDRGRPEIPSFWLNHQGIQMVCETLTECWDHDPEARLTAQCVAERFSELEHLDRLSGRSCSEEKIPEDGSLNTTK
T5 sequence (O60285 whole entry): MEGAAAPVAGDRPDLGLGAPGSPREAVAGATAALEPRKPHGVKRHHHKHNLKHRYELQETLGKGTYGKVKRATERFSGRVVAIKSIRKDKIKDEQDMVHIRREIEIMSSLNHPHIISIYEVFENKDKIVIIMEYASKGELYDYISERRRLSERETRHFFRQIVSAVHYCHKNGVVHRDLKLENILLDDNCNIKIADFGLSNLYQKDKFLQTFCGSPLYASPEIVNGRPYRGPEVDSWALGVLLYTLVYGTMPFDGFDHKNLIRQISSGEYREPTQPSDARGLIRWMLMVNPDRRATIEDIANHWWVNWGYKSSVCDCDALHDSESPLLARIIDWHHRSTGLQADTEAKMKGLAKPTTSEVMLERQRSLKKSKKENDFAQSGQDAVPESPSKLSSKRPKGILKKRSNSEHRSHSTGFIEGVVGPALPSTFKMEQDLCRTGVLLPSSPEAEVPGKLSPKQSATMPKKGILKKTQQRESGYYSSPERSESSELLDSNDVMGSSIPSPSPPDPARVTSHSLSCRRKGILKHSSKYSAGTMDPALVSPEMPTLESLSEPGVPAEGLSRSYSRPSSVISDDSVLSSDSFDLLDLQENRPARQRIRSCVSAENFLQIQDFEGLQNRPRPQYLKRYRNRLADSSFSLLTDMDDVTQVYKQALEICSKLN
MAPKAPK2, sequence (P49137 whole entry): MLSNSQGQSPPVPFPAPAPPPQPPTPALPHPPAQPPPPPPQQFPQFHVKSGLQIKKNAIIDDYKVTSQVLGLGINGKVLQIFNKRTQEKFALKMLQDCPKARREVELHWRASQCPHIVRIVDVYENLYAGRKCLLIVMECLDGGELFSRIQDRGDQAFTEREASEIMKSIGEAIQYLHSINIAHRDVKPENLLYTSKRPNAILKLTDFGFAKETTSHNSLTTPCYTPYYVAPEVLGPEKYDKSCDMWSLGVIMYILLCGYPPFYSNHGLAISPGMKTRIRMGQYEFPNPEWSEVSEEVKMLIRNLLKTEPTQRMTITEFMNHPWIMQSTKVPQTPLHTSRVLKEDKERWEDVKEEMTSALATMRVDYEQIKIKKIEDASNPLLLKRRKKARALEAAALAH
PDPK1, sequence (O15530 whole entry): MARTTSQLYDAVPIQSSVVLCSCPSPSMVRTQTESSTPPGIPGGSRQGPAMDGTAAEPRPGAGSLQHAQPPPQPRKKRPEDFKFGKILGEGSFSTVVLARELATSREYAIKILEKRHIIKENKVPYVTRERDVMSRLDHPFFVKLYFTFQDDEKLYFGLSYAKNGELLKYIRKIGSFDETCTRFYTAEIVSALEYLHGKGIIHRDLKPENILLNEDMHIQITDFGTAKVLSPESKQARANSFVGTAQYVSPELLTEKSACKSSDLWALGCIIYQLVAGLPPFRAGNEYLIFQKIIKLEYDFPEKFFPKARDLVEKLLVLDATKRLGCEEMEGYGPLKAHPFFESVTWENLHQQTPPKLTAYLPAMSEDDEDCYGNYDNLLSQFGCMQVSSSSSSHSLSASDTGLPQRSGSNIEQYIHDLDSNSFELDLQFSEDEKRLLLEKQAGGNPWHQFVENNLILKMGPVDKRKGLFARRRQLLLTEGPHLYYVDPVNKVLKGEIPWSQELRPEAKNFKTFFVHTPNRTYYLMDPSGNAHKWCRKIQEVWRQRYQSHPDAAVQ
MAPKAPK5, sequence (Q8IW41 whole entry): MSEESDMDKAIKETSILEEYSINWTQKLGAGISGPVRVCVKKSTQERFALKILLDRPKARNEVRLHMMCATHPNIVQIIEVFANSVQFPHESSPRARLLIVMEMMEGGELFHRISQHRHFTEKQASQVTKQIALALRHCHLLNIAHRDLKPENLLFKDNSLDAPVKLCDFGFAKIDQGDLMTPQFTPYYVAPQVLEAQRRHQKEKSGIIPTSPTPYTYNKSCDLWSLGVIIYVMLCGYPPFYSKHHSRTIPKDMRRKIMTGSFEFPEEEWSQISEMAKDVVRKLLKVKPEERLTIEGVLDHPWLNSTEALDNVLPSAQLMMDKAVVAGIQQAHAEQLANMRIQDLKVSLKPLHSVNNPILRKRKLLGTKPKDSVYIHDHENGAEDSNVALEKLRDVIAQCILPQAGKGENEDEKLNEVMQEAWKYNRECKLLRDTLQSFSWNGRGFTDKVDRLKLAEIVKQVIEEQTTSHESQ
RIPK4, sequence (P57078 whole entry): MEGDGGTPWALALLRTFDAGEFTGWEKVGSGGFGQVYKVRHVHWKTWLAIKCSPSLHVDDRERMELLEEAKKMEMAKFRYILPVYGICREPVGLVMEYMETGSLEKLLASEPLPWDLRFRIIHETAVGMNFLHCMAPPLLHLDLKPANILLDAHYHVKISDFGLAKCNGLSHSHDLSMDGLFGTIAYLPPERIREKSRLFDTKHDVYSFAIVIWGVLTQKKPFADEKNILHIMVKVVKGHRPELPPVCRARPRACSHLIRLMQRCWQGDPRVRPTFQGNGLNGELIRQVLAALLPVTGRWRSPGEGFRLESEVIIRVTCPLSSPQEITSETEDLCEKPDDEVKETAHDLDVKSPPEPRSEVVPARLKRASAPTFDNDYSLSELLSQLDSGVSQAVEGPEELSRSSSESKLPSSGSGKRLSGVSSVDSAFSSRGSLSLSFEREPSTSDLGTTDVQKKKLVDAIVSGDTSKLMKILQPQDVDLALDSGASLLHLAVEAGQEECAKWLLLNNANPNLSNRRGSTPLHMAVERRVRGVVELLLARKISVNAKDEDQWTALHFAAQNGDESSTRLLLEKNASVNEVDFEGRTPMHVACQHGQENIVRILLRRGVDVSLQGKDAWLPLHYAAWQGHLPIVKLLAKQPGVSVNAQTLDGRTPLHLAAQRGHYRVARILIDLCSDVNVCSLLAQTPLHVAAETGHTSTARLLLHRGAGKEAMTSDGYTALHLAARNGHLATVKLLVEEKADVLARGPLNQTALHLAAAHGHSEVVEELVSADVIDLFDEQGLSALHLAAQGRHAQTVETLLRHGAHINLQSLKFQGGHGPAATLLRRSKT
T2 sequence (Q13163 whole entry): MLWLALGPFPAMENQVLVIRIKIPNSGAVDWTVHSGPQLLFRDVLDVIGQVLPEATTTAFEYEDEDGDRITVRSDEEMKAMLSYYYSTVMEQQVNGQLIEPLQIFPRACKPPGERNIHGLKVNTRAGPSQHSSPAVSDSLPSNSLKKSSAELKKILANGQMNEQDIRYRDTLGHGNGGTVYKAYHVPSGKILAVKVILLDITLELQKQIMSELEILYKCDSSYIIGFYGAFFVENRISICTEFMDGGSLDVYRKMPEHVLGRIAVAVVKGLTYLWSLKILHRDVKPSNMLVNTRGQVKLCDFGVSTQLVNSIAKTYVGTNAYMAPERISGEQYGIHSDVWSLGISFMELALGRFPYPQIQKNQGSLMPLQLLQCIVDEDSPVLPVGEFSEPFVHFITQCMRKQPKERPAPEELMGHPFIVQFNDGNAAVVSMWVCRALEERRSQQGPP

`C[C@@H]1CC(=O)NN=C1c1ccc(NN=C(C#N)C#N)cc1` [levosimendan]: the “percentage control at 10 μM” value in [1] and in assay [2] was less than 30.0% throughout. Moreover, the remaining binding at 100 µM worked out at 87% in assay [3]; 49% in assay [4] (setting [22]); 100% in assay [5]; 100% in assay [6]; 100% in [7]; 61% in [8]. Further, the remaining binding at 100 µM in assay [9] turned out to be 86%; in assay [10] (setting [22]), 52%; in [11], 86%; in [12], 100%; in [13], 100%; in assay [14], 100%. Also, the remaining binding at 100 µM in [15] was 100%; in assay [16] it was 100%; in assay [17] it was 99%; in assay [18] it was 100%; in assay [19], 89%; in assay [20] it was 100%. The remaining binding at 10 µM came to 94% in assay [4] (setting [21]) and 76% in assay [10] (setting [21]).
